Experiments:
COVID-19 infection [1] = assay: Phase IIa study: COVID-19 PRO frequency score; format: in vivo, human
Source text: Subjects were enrolled in two cohorts. The treatment cohort consists of subjects receiving camostat mesylate, and the control cohort consists of subjects receiving a placebo. […] The control cohort received a placebo four times daily for seven days.
Subjects self-administered Likert-type symptom score evaluations daily from days 0-14, wherein subjects provided a ranking (i.e., 0—not at all, 1—a little bit, 2—somewhat, 3—quite a bit, and 4—very much) in response to various symptoms (e.g., nose, throat, eyes, chest/respiratory, gastrointestinal, body/systemic, and smell/taste symptoms) (Table 1).
The COVID-19 PRO daily self-score tool consists of 39 items that are answered daily by the subject. Items 1-33 are Likert-scale questions (e.g., rated 0-4), wherein 0=not at all, and 4=very much. These items are summed to score the severity of symptoms, wherein a total score of 132 would indicate the greatest severity of symptoms and a score of 0 would indicate no severity of symptoms.
Additional statistical models were applied to the raw data, which are provided herein (Tables 8-10).

COVID-19 infection [2] = assay: Phase IIa study: chest/respiratory-family symptom score; format: in vivo
COVID-19 infection [3] = assay: Phase IIa study: gastrointestinal-family symptom score; format: in vivo; conditions: for gastrointestinal-family symptoms, Fitzmaurice mixed effects model, Effect: Camostat vs Placebo
COVID-19 = conditions: hospitalized COVID-19 patients; 200 mg po three times daily for 5 days; cited from earlier work

CN(C)C(=O)COC(=O)Cc1ccc(OC(=O)c2ccc(NC(=N)N)cc2)cc1 [camostat, 4-[[4-[(Aminoiminomethyl)amino]benzoyl]oxy]benzeneacetic acid 2-(dimethylamino)-2-oxoethyl ester]
frequency score, Fitzmaurice mixed effects model, A: Camostat arm (COVID-19 infection [1]; day 0): 6.25 (0.47) | frequency score, Fitzmaurice mixed effects model, B − A (placebo − camostat) (COVID-19 infection [1]; day 0): 0 | frequency score, Fitzmaurice mixed effects model, A: Camostat arm (COVID-19 infection [1]; day 1): 6.49 (0.57) | frequency score, Fitzmaurice mixed effects model, B − A (placebo − camostat) (COVID-19 infection [1]; day 1): −0.05 (0.67) | frequency score, Fitzmaurice mixed effects model, A: Camostat arm (COVID-19 infection [1]; day 2): 5.51 (0.59) | frequency score, Fitzmaurice mixed effects model, B − A (placebo − camostat) (COVID-19 infection [1]; day 2): −0.03 (0.68) | frequency score, Fitzmaurice mixed effects model, A: Camostat arm (COVID-19 infection [1]; day 3): 5.88 (0.58) | frequency score, Fitzmaurice mixed effects model, B − A (placebo − camostat) (COVID-19 infection [1]; day 3): −0.42 (0.67) | frequency score, Fitzmaurice mixed effects model, A: Camostat arm (COVID-19 infection [1]; day 4): 5.64 (0.58) | frequency score, Fitzmaurice mixed effects model, B − A (placebo − camostat) (COVID-19 infection [1]; day 4): −1.05 (0.68) | frequency score, Fitzmaurice mixed effects model, A: Camostat arm (COVID-19 infection [1]; day 5): 5.54 (0.58) | frequency score, Fitzmaurice mixed effects model, B − A (placebo − camostat) (COVID-19 infection [1]; day 5): −0.96 (0.68) | frequency score, Fitzmaurice mixed effects model, A: Camostat arm (COVID-19 infection [1]; day 6): 4.75 (0.58) | frequency score, Fitzmaurice mixed effects model, B − A (placebo − camostat) (COVID-19 infection [1]; day 6): −0.41 (0.68) | frequency score, Fitzmaurice mixed effects model, A: Camostat arm (COVID-19 infection [1]; day 7): 4.62 (0.59) | frequency score, Fitzmaurice mixed effects model, B − A (placebo − camostat) (COVID-19 infection [1]; day 7): −0.51 (0.68) | frequency score, Fitzmaurice mixed effects model, A: Camostat arm (COVID-19 infection [1]; day 8): 4.39 (0.6) | frequency score, Fitzmaurice mixed effects model, B − A (placebo − camostat) (COVID-19 infection [1]; day 8): −0.9 (0.7) | frequency score, Fitzmaurice mixed effects model, A: Camostat arm (COVID-19 infection [1]; day 9): 3.98 (0.59) | frequency score, Fitzmaurice mixed effects model, B − A (placebo − camostat) (COVID-19 infection [1]; day 9): −0.54 (0.69) | frequency score, Fitzmaurice mixed effects model, A: Camostat arm (COVID-19 infection [1]; day 10): 3.96 (0.6) | frequency score, Fitzmaurice mixed effects model, B − A (placebo − camostat) (COVID-19 infection [1]; day 10): −0.98 (0.69) | frequency score, Fitzmaurice mixed effects model, A: Camostat arm (COVID-19 infection [1]; day 11): 3.8 (0.6) | frequency score, Fitzmaurice mixed effects model, B − A (placebo − camostat) (COVID-19 infection [1]; day 11): −0.9 (0.7) | frequency score, Fitzmaurice mixed effects model, A: Camostat arm (COVID-19 infection [1]; day 12): 2.75 (0.6) | frequency score, Fitzmaurice mixed effects model, B − A (placebo − camostat) (COVID-19 infection [1]; day 12): −0.28 (0.7) | frequency score, Fitzmaurice mixed effects model, A: Camostat arm (COVID-19 infection [1]; day 13): 2.66 (0.62) | frequency score, Fitzmaurice mixed effects model, B − A (placebo − camostat) (COVID-19 infection [1]; day 13): −0.22 (0.72) | frequency score, Fitzmaurice mixed effects model, A: Camostat arm (COVID-19 infection [1]; day 14): 2.44 (0.61) | frequency score, Fitzmaurice mixed effects model, B − A (placebo − camostat) (COVID-19 infection [1]; day 14): −0.13 (0.72) | chest/respiratory-family symptom score, Fitzmaurice model, Camostat (COVID-19 infection [2]; day 0): 7.5 (0.7) | chest/respiratory-family symptom score, Fitzmaurice model, Camostat (COVID-19 infection [2]; day 1): 7.7 (0.8) | chest/respiratory-family symptom score, Fitzmaurice model, Effect (placebo vs camostat) (COVID-19 infection [2]; day 1): −0.1 (0.9) | chest/respiratory-family symptom score, Fitzmaurice model, Camostat (COVID-19 infection [2]; day 2): 7.6 (0.8) | chest/respiratory-family symptom score, Fitzmaurice model, Effect (placebo vs camostat) (COVID-19 infection [2]; day 2): −0.5 (0.9) | chest/respiratory-family symptom score, Fitzmaurice model, Camostat (COVID-19 infection [2]; day 3): 7.5 (0.8) | chest/respiratory-family symptom score, Fitzmaurice model, Effect (placebo vs camostat) (COVID-19 infection [2]; day 3): −0.4 (0.9) | chest/respiratory-family symptom score, Fitzmaurice model, Camostat (COVID-19 infection [2]; day 4): 8 (0.8) | chest/respiratory-family symptom score, Fitzmaurice model, Effect (placebo vs camostat) (COVID-19 infection [2]; day 4): −1.7 (0.9) | chest/respiratory-family symptom score, Fitzmaurice model, Camostat (COVID-19 infection [2]; day 5): 7 (0.8) | chest/respiratory-family symptom score, Fitzmaurice model, Effect (placebo vs camostat) (COVID-19 infection [2]; day 5): −0.8 (0.9) | chest/respiratory-family symptom score, Fitzmaurice model, Camostat (COVID-19 infection [2]; day 6): 6.6 (0.8) | chest/respiratory-family symptom score, Fitzmaurice model, Effect (placebo vs camostat) (COVID-19 infection [2]; day 6): −0.7 (0.9) | chest/respiratory-family symptom score, Fitzmaurice model, Camostat (COVID-19 infection [2]; day 7): 6.2 (0.8) | chest/respiratory-family symptom score, Fitzmaurice model, Effect (placebo vs camostat) (COVID-19 infection [2]; day 7): −0.7 (0.9) | chest/respiratory-family symptom score, Fitzmaurice model, Camostat (COVID-19 infection [2]; day 8): 5.7 (0.8) | chest/respiratory-family symptom score, Fitzmaurice model, Effect (placebo vs camostat) (COVID-19 infection [2]; day 8): −1.4 (0.9) | chest/respiratory-family symptom score, Fitzmaurice model, Camostat (COVID-19 infection [2]; day 9): 5.4 (0.8) | chest/respiratory-family symptom score, Fitzmaurice model, Effect (placebo vs camostat) (COVID-19 infection [2]; day 9): −1.2 (0.9) | chest/respiratory-family symptom score, Fitzmaurice model, Camostat (COVID-19 infection [2]; day 10): 4.9 (0.8) | chest/respiratory-family symptom score, Fitzmaurice model, Effect (placebo vs camostat) (COVID-19 infection [2]; day 10): −1 (0.9) | chest/respiratory-family symptom score, Fitzmaurice model, Camostat (COVID-19 infection [2]; day 11): 4.2 (0.8) | chest/respiratory-family symptom score, Fitzmaurice model, Effect (placebo vs camostat) (COVID-19 infection [2]; day 11): −0.5 (0.9) | chest/respiratory-family symptom score, Fitzmaurice model, Camostat (COVID-19 infection [2]; day 12): 4 (0.8) | chest/respiratory-family symptom score, Fitzmaurice model, Effect (placebo vs camostat) (COVID-19 infection [2]; day 12): −1 (0.9) | chest/respiratory-family symptom score, Fitzmaurice model, Camostat (COVID-19 infection [2]; day 13): 3.9 (0.9) | chest/respiratory-family symptom score, Fitzmaurice model, Effect (placebo vs camostat) (COVID-19 infection [2]; day 13): −1.1 (0.9) | chest/respiratory-family symptom score, Fitzmaurice model, Camostat (COVID-19 infection [2]; day 14): 3.5 (0.9) | chest/respiratory-family symptom score, Fitzmaurice model, Effect (placebo vs camostat) (COVID-19 infection [2]; day 14): −0.8 (0.9) | gastrointestinal-family symptoms, Fitzmaurice mixed effects model, Camostat (COVID-19 infection [3]; Day 0): 2.1 (0.2) | gastrointestinal-family symptoms, Fitzmaurice mixed effects model, Camostat (COVID-19 infection [3]; Day 1): 2.4 (0.3) | gastrointestinal-family symptoms, Fitzmaurice mixed effects model, Effect (COVID-19 infection [3]; Day 1): −0.4 (0.4) | gastrointestinal-family symptoms, Fitzmaurice mixed effects model, Camostat (COVID-19 infection [3]; Day 2): 2 (0.3) | gastrointestinal-family symptoms, Fitzmaurice mixed effects model, Effect (COVID-19 infection [3]; Day 2): −0.1 (0.4) | gastrointestinal-family symptoms, Fitzmaurice mixed effects model, Camostat (COVID-19 infection [3]; Day 3): 1.6 (0.3) | gastrointestinal-family symptoms, Fitzmaurice mixed effects model, Effect (COVID-19 infection [3]; Day 3): 0.1 (0.4) | gastrointestinal-family symptoms, Fitzmaurice mixed effects model, Camostat (COVID-19 infection [3]; Day 4): 1 (0.3) | gastrointestinal-family symptoms, Fitzmaurice mixed effects model, Effect (COVID-19 infection [3]; Day 4): 0.8 (0.4) | gastrointestinal-family symptoms, Fitzmaurice mixed effects model, Camostat (COVID-19 infection [3]; Day 5): 0.9 (0.3) | gastrointestinal-family symptoms, Fitzmaurice mixed effects model, Effect (COVID-19 infection [3]; Day 5): 0.5 (0.4) | gastrointestinal-family symptoms, Fitzmaurice mixed effects model, Camostat (COVID-19 infection [3]; Day 6): 0.8 (0.3) | gastrointestinal-family symptoms, Fitzmaurice mixed effects model, Effect (COVID-19 infection [3]; Day 6): 0.6 (0.4) | gastrointestinal-family symptoms, Fitzmaurice mixed effects model, Camostat (COVID-19 infection [3]; Day 7): 0.7 (0.3) | gastrointestinal-family symptoms, Fitzmaurice mixed effects model, Effect (COVID-19 infection [3]; Day 7): 0.4 (0.4) | gastrointestinal-family symptoms, Fitzmaurice mixed effects model, Camostat (COVID-19 infection [3]; Day 8): 0.6 (0.3) | gastrointestinal-family symptoms, Fitzmaurice mixed effects model, Effect (COVID-19 infection [3]; Day 8): 0.5 (0.4) | gastrointestinal-family symptoms, Fitzmaurice mixed effects model, Camostat (COVID-19 infection [3]; Day 9): 0.5 (0.3) | gastrointestinal-family symptoms, Fitzmaurice mixed effects model, Effect (COVID-19 infection [3]; Day 9): 0.5 (0.4) | gastrointestinal-family symptoms, Fitzmaurice mixed effects model, Camostat (COVID-19 infection [3]; Day 10): 0.8 (0.3) | gastrointestinal-family symptoms, Fitzmaurice mixed effects model, Effect (COVID-19 infection [3]; Day 10): 0.2 (0.4) | gastrointestinal-family symptoms, Fitzmaurice mixed effects model, Camostat (COVID-19 infection [3]; Day 11): 0.5 (0.3) | gastrointestinal-family symptoms, Fitzmaurice mixed effects model, Effect (COVID-19 infection [3]; Day 11): 0.2 (0.4) | gastrointestinal-family symptoms, Fitzmaurice mixed effects model, Camostat (COVID-19 infection [3]; Day 12): 0.4 (0.3) | gastrointestinal-family symptoms, Fitzmaurice mixed effects model, Effect (COVID-19 infection [3]; Day 12): 0.3 (0.4) | gastrointestinal-family symptoms, Fitzmaurice mixed effects model, Camostat (COVID-19 infection [3]; Day 13): 0.5 (0.3) | gastrointestinal-family symptoms, Fitzmaurice mixed effects model, Effect (COVID-19 infection [3]; Day 13): 0.1 (0.4) | gastrointestinal-family symptoms, Fitzmaurice mixed effects model, Camostat (COVID-19 infection [3]; Day 14): 0.3 (0.3) | gastrointestinal-family symptoms, Fitzmaurice mixed effects model, Effect (COVID-19 infection [3]; Day 14): 0.4 (0.4) | adverse effects (COVID-19): adverse effects were not observed | effect on clinical severity (e.g. escalation to ICU admission) (COVID-19): did not have an observable effect
